{"source": "patent US11779529B2", "about": "“Personal care composition” (Colgate-Palmolive Company, priority 2017, dated 2023)", "test_system": "Collagen I", "assay": "Collagen I release from human dermal fibroblast cells, COL1A1 ELISA of supernatants", "type": "cell-based", "conditions": "1 mL composition, 24 hours, 37° C., 5% CO2, average of 3 tests", "description": "Each of the compositions of Table 3 was tested on human dermal fibroblast cells (Thermo Fisher Scientific, Gaithersburg, Md.) as follows: human dermal fibroblast cells were seeded in 6-well plates and grow until about 80% confluency. 1 mL of each composition was added to the wells in triplicate per composition. The cells were then incubated at 37° C., 5% CO2 for 24 hours and the supernatants were collected and analyzed for Collagen I release. Collagen I release in the supernatants was measured using COL1A1 ELISA kit (MyBioSource, San Diego, Calif.). The data in Table 3 represents the average value for 3 tests."}
{"smiles": "NCCS(=O)(=O)O", "note": "[Solvent + 0.001% Taurine, Taurine]", "values": [{"measurement": "Collagen I", "value": 1.9, "unit": "ng/mL"}]}
